Where two headings read alike, the source gives them in different places.
How the values were obtained:
[1] = test system: isolated ileum of a guinea-pig; assay: Test on the isolated ileum of a guinea-pig (contraction, agonist activity); details: Cavia porcellus, read-out: pD2 (converted)
Procedure: Fragments of the ileum of guinea-pigs killed by decapitation are removed. […] The contractions caused by the products are recorded using a sensor connected to a polygraph. The products under test are added, at concentrations comprised between 1.10^-3 M and 1.10^-8 M/l.
The products presenting a contracting effect are tested vis-a-vis atropine and hexamethonium to establish if the activity is of "muscarinic" or "nicotinic" type.
The possible antagonist activity of the products is tested vis-a-vis acetylcholine.
The agonist activity is expressed in pD2 (negative logarithm of the dose which produces 50% of the maximum effect).

[2] = test system: male mice (CD1 Charles Rivers); assay: Diarrhoeic activity, oral; details: for ED50: Mus musculus, po, read-out: DE50
Procedure: The test is carried out on male mice (CD1 Charles Rivers) weighing 25 to 30 g, without food for 6 hours. The product at 5% in methocel is administered by oral route, by means of an oesophagus probe.
Control animals receive only the excipient.
The sheets of absorbent paper are changed after each observation.
1: slightly soft faeces with or without moist circle,
2: slightly soft faeces with presence of a well-defined moist circle,
3: soft faeces with presence of a large moist circle,
4: faeces without consistency with presence of a very large moist circle.

[3] = test system: male mice (CD1 Charles Rivers); assay: Hypothermic activity (rectal body temperature); type: in vivo; details: Mus musculus; for ED (1 C fall in body temperature): sc, read-out: Effective dose (-1° C.) SC.R.; for ED (-1 C): read-out: Effective dose (-1° C.) O.R.
Procedure: The test is carried out on male mice (CD1 Charles Rivers) weighing 25 to 30 g, without food for 6 hours.
The body temperature is noted by means of a thermocouple placed about 1.5 cm inside the rectum and connected to an electric temperature recorder.
The products are administered by oral or sub-cutaneous route and the temperatures are noted at 0 and 30 minutes, one hour, 2 hours and 2 hours 30 minutes after treatment.
The degree of hypothermia is evaluated as the difference between the treated animals and the controls and the dose necessary to reduce the body temperature by 1° C. is determined.

in vivo = details: mouse, male mice, oral route, mortality during 7 days following treatment
Procedure: The test is carried out on male mice (CD1 Charles Rivers) of 22 to 24 g, without food for 16 hours. […] The mortality is noted during the 7 days following treatment.

[4] = negative logarithm of the dose which produces 50% of the maximum effect, Tyrode's solution at 37° C.
[5] = sub-cutaneous route, dose necessary to reduce the body temperature by 1° C.
[6] = oral route, dose necessary to reduce the body temperature by 1° C.

SMILES | EC50 [1, 4] | ED50 [2] | ED (1 C fall in body temperature) [3, 5] | ED (-1 C) [3, 6] | LD50 at 168 h (in vivo) | EC50 [1] | DE50 ([2]; male mice, oral route, dose which causes diarrhoea in 50% of the animals) | ED (-1 C) ([3]; po) | ED (1 C fall in body temperature) [3]
ON1CCC=C(c2ncco2)C1 [Example 10, 1-hydroxy-3-(oxazol-2-yl)-1,2,5,6-tetrahydropyridine] | > 100000 nM | 10 mg/kg | 4.1 mg/kg | 4.2 mg/kg | 300 mg/kg |  |  |  | 
Cc1coc(C2=CCCNC2)n1.Cl [Example 2, 3-(4-methyloxazol-2-yl)-1,2,5,6-tetrahydropyridine hydrochloride] | 1070 nM | 3 mg/kg | 1.7 mg/kg | 2.6 mg/kg | 125 mg/kg |  |  |  | 
C1=C(c2ncco2)CNCC1.Cl [Example 6, 3-(oxazol-2-yl)-1,2,5,6-tetrahydropyridine hydrochloride] | 1950 nM | 15 mg/kg | 3.2 mg/kg | 3.2 mg/kg | 200 mg/kg |  |  |  | 
COC(=O)C1=CCCN(C)C1 [Aerocoline, HBr, reference compound] |  |  |  |  |  | 331 nM | 35 mg/kg | 194 mg/kg | 3 mg/kg
Cc1cnc(C2=CCCNC2)o1.Cl [Example 8, 3-(5-methyloxazol-2-yl)-1,2,5,6-tetrahydropyridine hydrochloride] | 5890 nM |  | 25 mg/kg | 24 mg/kg | 500 mg/kg |  |  |  | 

Source: patent US5053416A, “Derivatives of 1,2,5,6-tetrahydropyridine substituted by a thiazolyl or oxazolyl radical, their use as medicaments and compositions containing them” (Roussel Uclaf, priority 1988, dated 1991)
